According to ChEMBL document CHEMBL1201861, “Genomics of Drug Sensitity in Cancer screening data, Wellcome Trust Sanger Institute”:

Each molecule was assayed on HAL-01 (assay: cells). Conditions: Homo sapiens, HAL-01.
Assay type: functional, cell-based, Homo sapiens
Description: SANGER: Inhibition of human HAL-01 cell growth in a cell viability assay.

| Compound | IC50 |
| --- | --- |
| COc1cc2c(Nc3ccc(NC(=O)c4ccccc4)cc3)ncnc2cc1OCCCN1CCOCC1 | > 4 µM |

The molecules below were run on BE-13 (assay: cells). Conditions: Homo sapiens, BE-13.
Assay type: functional, cell-based, Homo sapiens
Description: SANGER: Inhibition of human BE-13 cell growth in a cell viability assay.

| Compound | IC50 |
| --- | --- |
| COc1cc2c(Nc3ccc(NC(=O)c4ccccc4)cc3)ncnc2cc1OCCCN1CCOCC1 | 0.844 µM |

What follows are molecules tested on NCI-H1299 (assay: cells). Conditions: Homo sapiens, NCI-H1299.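 Note: growth inhibition of human NCI-H1299 cells, read out by a cell viability assay.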
Assay type: functional, cell-based, Homo sapiens
Description: SANGER: Inhibition of human NCI-H1299 cell growth in a cell viability assay.

| Compound | IC50 |
| --- | --- |
| COc1cc2c(Nc3ccc(NC(=O)c4ccccc4)cc3)ncnc2cc1OCCCN1CCOCC1 | > 4 µM |

The molecules below were run on L-428 (assay: cells). Conditions: Homo sapiens, L-428.
Assay type: functional, cell-based, Homo sapiens
Description: SANGER: Inhibition of human L-428 cell growth in a cell viability assay.

| Compound | IC50 |
| --- | --- |
| COc1cc2c(Nc3ccc(NC(=O)c4ccccc4)cc3)ncnc2cc1OCCCN1CCOCC1 | > 4 µM |

What follows are molecules tested on A3-KAW (assay: cells). Conditions: Homo sapiens, A3-KAW.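 Note: growth inhibition of human A3-KAW cells, read out with a cell viability assay.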
Assay type: functional, cell-based, Homo sapiens
Description: SANGER: Inhibition of human A3-KAW cell growth in a cell viability assay.

| Compound | IC50 |
| --- | --- |
| COc1cc2c(Nc3ccc(NC(=O)c4ccccc4)cc3)ncnc2cc1OCCCN1CCOCC1 | > 4 µM |

What follows are molecules tested on A704 (assay: cells). Conditions: Homo sapiens, A704.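 Note: growth inhibition of human A704 cells, read out with a cell viability assay.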
Assay type: functional, cell-based, Homo sapiens
Description: SANGER: Inhibition of human A704 cell growth in a cell viability assay.

| Compound | IC50 |
| --- | --- |
| COc1cc2c(Nc3ccc(NC(=O)c4ccccc4)cc3)ncnc2cc1OCCCN1CCOCC1 | > 4 µM |

Each molecule was assayed on BB30-HNC (assay: cells). Conditions: Homo sapiens, BB30-HNC.
Assay type: functional, cell-based, Homo sapiens
Description: SANGER: Inhibition of human BB30-HNC cell growth in a cell viability assay.

| Compound | IC50 |
| --- | --- |
| COc1cc2c(Nc3ccc(NC(=O)c4ccccc4)cc3)ncnc2cc1OCCCN1CCOCC1 | 2.54 µM |

The molecules below were run on COLO-824 (assay: cells). Conditions: Homo sapiens, COLO-824.
Assay type: functional, cell-based, Homo sapiens
Description: SANGER: Inhibition of human COLO-824 cell growth in a cell viability assay.

| Compound | IC50 |
| --- | --- |
| COc1cc2c(Nc3ccc(NC(=O)c4ccccc4)cc3)ncnc2cc1OCCCN1CCOCC1 | > 4 µM |

What follows are molecules tested on NCI-H1650 (assay: cells). Conditions: Homo sapiens, NCI-H1650.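 Note: growth inhibition of human NCI-H1650 cells measured by a cell viability assay.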
Assay type: functional, cell-based, Homo sapiens
Description: SANGER: Inhibition of human NCI-H1650 cell growth in a cell viability assay.

| Compound | IC50 |
| --- | --- |
| COc1cc2c(Nc3ccc(NC(=O)c4ccccc4)cc3)ncnc2cc1OCCCN1CCOCC1 | > 4 µM |

Each molecule was assayed on GCIY (assay: cells). Conditions: Homo sapiens, GCIY.
Assay type: functional, cell-based, Homo sapiens
Description: SANGER: Inhibition of human GCIY cell growth in a cell viability assay.

| Compound | IC50 |
| --- | --- |
| COc1cc2c(Nc3ccc(NC(=O)c4ccccc4)cc3)ncnc2cc1OCCCN1CCOCC1 | > 4 µM |

These molecules were tested on IA-LM (assay: cells). Conditions: Homo sapiens, IA-LM.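 Note: cell viability assay measuring growth inhibition of human IA-LM cells.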
Assay type: functional, cell-based, Homo sapiens
Description: SANGER: Inhibition of human IA-LM cell growth in a cell viability assay.

| Compound | IC50 |
| --- | --- |
| COc1cc2c(Nc3ccc(NC(=O)c4ccccc4)cc3)ncnc2cc1OCCCN1CCOCC1 | > 4 µM |

The molecules below were run on NCI-H82 (assay: cells). Conditions: Homo sapiens, NCI-H82.
Assay type: functional, cell-based, Homo sapiens
Description: SANGER: Inhibition of human NCI-H82 cell growth in a cell viability assay.

| Compound | IC50 |
| --- | --- |
| COc1cc2c(Nc3ccc(NC(=O)c4ccccc4)cc3)ncnc2cc1OCCCN1CCOCC1 | > 4 µM |

The molecules below were run on LS-1034 (assay: cells). Conditions: Homo sapiens, LS-1034.
Assay type: functional, cell-based, Homo sapiens
Description: SANGER: Inhibition of human LS-1034 cell growth in a cell viability assay.

| Compound | IC50 |
| --- | --- |
| COc1cc2c(Nc3ccc(NC(=O)c4ccccc4)cc3)ncnc2cc1OCCCN1CCOCC1 | > 4 µM |

Each molecule was assayed on TE-11 (assay: cells). Conditions: Homo sapiens, TE-11.
Assay type: functional, cell-based, Homo sapiens
Description: SANGER: Inhibition of human TE-11 cell growth in a cell viability assay.

| Compound | IC50 |
| --- | --- |
| COc1cc2c(Nc3ccc(NC(=O)c4ccccc4)cc3)ncnc2cc1OCCCN1CCOCC1 | 0.537 µM |

The molecules below were run on OCUB-M (assay: cells). Conditions: Homo sapiens, OCUB-M.
Assay type: functional, cell-based, Homo sapiens
Description: SANGER: Inhibition of human OCUB-M cell growth in a cell viability assay.

| Compound | IC50 |
| --- | --- |
| COc1cc2c(Nc3ccc(NC(=O)c4ccccc4)cc3)ncnc2cc1OCCCN1CCOCC1 | 2.25 µM |

Each molecule was assayed on GR-ST (assay: cells). Conditions: Homo sapiens, GR-ST.
Assay type: functional, cell-based, Homo sapiens
Description: SANGER: Inhibition of human GR-ST cell growth in a cell viability assay.

| Compound | IC50 |
| --- | --- |
| COc1cc2c(Nc3ccc(NC(=O)c4ccccc4)cc3)ncnc2cc1OCCCN1CCOCC1 | > 4 µM |

These molecules were tested on BB65-RCC (assay: cells). Conditions: Homo sapiens, BB65-RCC.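 Note: growth inhibition of the cell line, measured with a cell viability assay.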
Assay type: functional, cell-based, Homo sapiens
Description: SANGER: Inhibition of human BB65-RCC cell growth in a cell viability assay.

| Compound | IC50 |
| --- | --- |
| COc1cc2c(Nc3ccc(NC(=O)c4ccccc4)cc3)ncnc2cc1OCCCN1CCOCC1 | > 4 µM |

What follows are molecules tested on NCI-H1395 (assay: cells). Conditions: Homo sapiens, NCI-H1395.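 Note: cell viability assay read-out quantifying reduced proliferation of human NCI-H1395 cells.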
Assay type: functional, cell-based, Homo sapiens
Description: SANGER: Inhibition of human NCI-H1395 cell growth in a cell viability assay.

| Compound | IC50 |
| --- | --- |
| COc1cc2c(Nc3ccc(NC(=O)c4ccccc4)cc3)ncnc2cc1OCCCN1CCOCC1 | > 4 µM |

Each molecule was assayed on L-363 (assay: cells). Conditions: Homo sapiens, L-363.
Assay type: functional, cell-based, Homo sapiens
Description: SANGER: Inhibition of human L-363 cell growth in a cell viability assay.

| Compound | IC50 |
| --- | --- |
| COc1cc2c(Nc3ccc(NC(=O)c4ccccc4)cc3)ncnc2cc1OCCCN1CCOCC1 | 1.95 µM |

These molecules were tested on MPP-89 (assay: cells). Conditions: Homo sapiens, MPP-89.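 Note: growth inhibition of human MPP-89 cells, read out with a cell viability assay.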
Assay type: functional, cell-based, Homo sapiens
Description: SANGER: Inhibition of human MPP-89 cell growth in a cell viability assay.

| Compound | IC50 |
| --- | --- |
| COc1cc2c(Nc3ccc(NC(=O)c4ccccc4)cc3)ncnc2cc1OCCCN1CCOCC1 | > 4 µM |

Each molecule was assayed on GOTO (assay: cells). Conditions: Homo sapiens, GOTO.
Assay type: functional, cell-based, Homo sapiens
Description: SANGER: Inhibition of human GOTO cell growth in a cell viability assay.

| Compound | IC50 |
| --- | --- |
| COc1cc2c(Nc3ccc(NC(=O)c4ccccc4)cc3)ncnc2cc1OCCCN1CCOCC1 | > 4 µM |

Each molecule was assayed on TE-5 (assay: cells). Conditions: Homo sapiens, TE-5.
Assay type: functional, cell-based, Homo sapiens
Description: SANGER: Inhibition of human TE-5 cell growth in a cell viability assay.

| Compound | IC50 |
| --- | --- |
| COc1cc2c(Nc3ccc(NC(=O)c4ccccc4)cc3)ncnc2cc1OCCCN1CCOCC1 | > 4 µM |

The molecules below were run on SW 962 (assay: cells). Conditions: Homo sapiens, SW 962.
Assay type: functional, cell-based, Homo sapiens
Description: SANGER: Inhibition of human SW962 cell growth in a cell viability assay.

| Compound | IC50 |
| --- | --- |
| COc1cc2c(Nc3ccc(NC(=O)c4ccccc4)cc3)ncnc2cc1OCCCN1CCOCC1 | > 4 µM |

Each molecule was assayed on NOMO-1 (assay: cells). Conditions: Homo sapiens, NOMO-1.
Assay type: functional, cell-based, Homo sapiens
Description: SANGER: Inhibition of human NOMO-1 cell growth in a cell viability assay.

| Compound | IC50 |
| --- | --- |
| COc1cc2c(Nc3ccc(NC(=O)c4ccccc4)cc3)ncnc2cc1OCCCN1CCOCC1 | 1.37 µM |

These molecules were tested on SK-MEL-1 (assay: cells). Conditions: Homo sapiens, SK-MEL-1.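 Note: growth inhibition of human SK-MEL-1 cells, read out by a cell viability assay.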
Assay type: functional, cell-based, Homo sapiens
Description: SANGER: Inhibition of human SK-MEL-1 cell growth in a cell viability assay.

| Compound | IC50 |
| --- | --- |
| COc1cc2c(Nc3ccc(NC(=O)c4ccccc4)cc3)ncnc2cc1OCCCN1CCOCC1 | > 4 µM |

Each molecule was assayed on 8-MG-BA (assay: cells). Conditions: Homo sapiens, 8-MG-BA.
Assay type: functional, cell-based, Homo sapiens
Description: SANGER: Inhibition of human 8-MG-BA cell growth in a cell viability assay.

| Compound | IC50 |
| --- | --- |
| COc1cc2c(Nc3ccc(NC(=O)c4ccccc4)cc3)ncnc2cc1OCCCN1CCOCC1 | > 4 µM |

Each molecule was assayed on NCI-H747 (assay: cells). Conditions: Homo sapiens, NCI-H747.
Assay type: functional, cell-based, Homo sapiens
Description: SANGER: Inhibition of human NCI-H747 cell growth in a cell viability assay.

| Compound | IC50 |
| --- | --- |
| COc1cc2c(Nc3ccc(NC(=O)c4ccccc4)cc3)ncnc2cc1OCCCN1CCOCC1 | 2.03 µM |

These molecules were tested on A101D (assay: cells). Conditions: Homo sapiens, A101D.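 Note: growth inhibition of the cell line, measured with a viability assay.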
Assay type: functional, cell-based, Homo sapiens
Description: SANGER: Inhibition of human A101D cell growth in a cell viability assay.

| Compound | IC50 |
| --- | --- |
| COc1cc2c(Nc3ccc(NC(=O)c4ccccc4)cc3)ncnc2cc1OCCCN1CCOCC1 | > 4 µM |

Each molecule was assayed on SK-N-FI (assay: cells). Conditions: Homo sapiens, SK-N-FI.
Assay type: functional, cell-based, Homo sapiens
Description: SANGER: Inhibition of human SK-N-FI cell growth in a cell viability assay.

| Compound | IC50 |
| --- | --- |
| COc1cc2c(Nc3ccc(NC(=O)c4ccccc4)cc3)ncnc2cc1OCCCN1CCOCC1 | > 4 µM |

These molecules were tested on MSTO-211H (assay: cells). Conditions: Homo sapiens, MSTO-211H.
Assay type: functional, cell-based, Homo sapiens
Description: SANGER: Inhibition of human MSTO-211H cell growth in a cell viability assay.

| Compound | IC50 |
| --- | --- |
| COc1cc2c(Nc3ccc(NC(=O)c4ccccc4)cc3)ncnc2cc1OCCCN1CCOCC1 | > 4 µM |

Each molecule was assayed on NB12 (assay: cells). Conditions: Homo sapiens, NB12.
Assay type: functional, cell-based, Homo sapiens
Description: SANGER: Inhibition of human NB12 cell growth in a cell viability assay.

| Compound | IC50 |
| --- | --- |
| COc1cc2c(Nc3ccc(NC(=O)c4ccccc4)cc3)ncnc2cc1OCCCN1CCOCC1 | > 4 µM |

Each molecule was assayed on KP-N-YS (assay: cells). Conditions: Homo sapiens, KP-N-YS.
Assay type: functional, cell-based, Homo sapiens
Description: SANGER: Inhibition of human KP-N-YS cell growth in a cell viability assay.

| Compound | IC50 |
| --- | --- |
| COc1cc2c(Nc3ccc(NC(=O)c4ccccc4)cc3)ncnc2cc1OCCCN1CCOCC1 | > 4 µM |

These molecules were tested on J-RT3-T3-5 (assay: cells). Conditions: Homo sapiens, J-RT3-T3-5.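 Note: cell viability assay measuring growth inhibition of human J-RT3-T3-5 cells.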
Assay type: functional, cell-based, Homo sapiens
Description: SANGER: Inhibition of human J-RT3-T3-5 cell growth in a cell viability assay.

| Compound | IC50 |
| --- | --- |
| COc1cc2c(Nc3ccc(NC(=O)c4ccccc4)cc3)ncnc2cc1OCCCN1CCOCC1 | > 4 µM |

Each molecule was assayed on D283 Med (assay: cells). Conditions: Homo sapiens, D283 Med.
Assay type: functional, cell-based, Homo sapiens
Description: SANGER: Inhibition of human D-283MED cell growth in a cell viability assay.

| Compound | IC50 |
| --- | --- |
| COc1cc2c(Nc3ccc(NC(=O)c4ccccc4)cc3)ncnc2cc1OCCCN1CCOCC1 | > 4 µM |

The molecules below were run on TGW (assay: cells). Conditions: Homo sapiens, TGW.
Assay type: functional, cell-based, Homo sapiens
Description: SANGER: Inhibition of human TGW cell growth in a cell viability assay.

| Compound | IC50 |
| --- | --- |
| COc1cc2c(Nc3ccc(NC(=O)c4ccccc4)cc3)ncnc2cc1OCCCN1CCOCC1 | > 4 µM |

Each molecule was assayed on IST-MEL1 (assay: cells). Conditions: Homo sapiens, IST-MEL1.
Assay type: functional, cell-based, Homo sapiens
Description: SANGER: Inhibition of human IST-MEL1 cell growth in a cell viability assay.

| Compound | IC50 |
| --- | --- |
| COc1cc2c(Nc3ccc(NC(=O)c4ccccc4)cc3)ncnc2cc1OCCCN1CCOCC1 | > 4 µM |

What follows are molecules tested on MOLT-16 (assay: cells). Conditions: Homo sapiens, MOLT-16.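 Note: growth inhibition of human MOLT-16 cells, read out with a cell viability assay.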
Assay type: functional, cell-based, Homo sapiens
Description: SANGER: Inhibition of human MOLT-16 cell growth in a cell viability assay.

| Compound | IC50 |
| --- | --- |
| COc1cc2c(Nc3ccc(NC(=O)c4ccccc4)cc3)ncnc2cc1OCCCN1CCOCC1 | 0.61 µM |

These molecules were tested on NB6 (assay: cells). Conditions: Homo sapiens, NB6.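 Note: growth inhibition of NB6 cells, read out by a cell viability assay.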
Assay type: functional, cell-based, Homo sapiens
Description: SANGER: Inhibition of human NB6 cell growth in a cell viability assay.

| Compound | IC50 |
| --- | --- |
| COc1cc2c(Nc3ccc(NC(=O)c4ccccc4)cc3)ncnc2cc1OCCCN1CCOCC1 | > 4 µM |

Each molecule was assayed on ES6 (assay: cells). Conditions: Homo sapiens, ES6.
Assay type: functional, cell-based, Homo sapiens
Description: SANGER: Inhibition of human ES6 cell growth in a cell viability assay.

| Compound | IC50 |
| --- | --- |
| COc1cc2c(Nc3ccc(NC(=O)c4ccccc4)cc3)ncnc2cc1OCCCN1CCOCC1 | > 4 µM |

The molecules below were run on HCC2157 (assay: cells). Conditions: Homo sapiens, HCC2157.
Assay type: functional, cell-based, Homo sapiens
Description: SANGER: Inhibition of human HCC2157 cell growth in a cell viability assay.

| Compound | IC50 |
| --- | --- |
| COc1cc2c(Nc3ccc(NC(=O)c4ccccc4)cc3)ncnc2cc1OCCCN1CCOCC1 | > 4 µM |

These molecules were tested on ES4 (assay: cells). Conditions: Homo sapiens, ES4.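 Note: growth inhibition of human ES4 cells, read out by a cell viability assay.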
Assay type: functional, cell-based, Homo sapiens
Description: SANGER: Inhibition of human ES4 cell growth in a cell viability assay.

| Compound | IC50 |
| --- | --- |
| COc1cc2c(Nc3ccc(NC(=O)c4ccccc4)cc3)ncnc2cc1OCCCN1CCOCC1 | > 4 µM |

The molecules below were run on CGTH-W-1 (assay: cells). Conditions: Homo sapiens, CGTH-W-1.
Assay type: functional, cell-based, Homo sapiens
Description: SANGER: Inhibition of human CGTH-W-1 cell growth in a cell viability assay.

| Compound | IC50 |
| --- | --- |
| COc1cc2c(Nc3ccc(NC(=O)c4ccccc4)cc3)ncnc2cc1OCCCN1CCOCC1 | 2.62 µM |

The molecules below were run on NCI-H720 (assay: cells). Conditions: Homo sapiens, NCI-H720.
Assay type: functional, cell-based, Homo sapiens
Description: SANGER: Inhibition of human NCI-H720 cell growth in a cell viability assay.

| Compound | IC50 |
| --- | --- |
| COc1cc2c(Nc3ccc(NC(=O)c4ccccc4)cc3)ncnc2cc1OCCCN1CCOCC1 | 1.21 µM |

These molecules were tested on SF-268 (assay: cells). Conditions: Homo sapiens, SF-268.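 Note: growth inhibition of SF-268 cells determined with a cell viability assay.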
Assay type: functional, cell-based, Homo sapiens
Description: SANGER: Inhibition of human SF268 cell growth in a cell viability assay.

| Compound | IC50 |
| --- | --- |
| COc1cc2c(Nc3ccc(NC(=O)c4ccccc4)cc3)ncnc2cc1OCCCN1CCOCC1 | > 4 µM |

These molecules were tested on OVCAR-4 (assay: cells). Conditions: Homo sapiens, OVCAR-4.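 Note: growth inhibition of human OVCAR-4 cells, measured with a cell viability assay.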
Assay type: functional, cell-based, Homo sapiens
Description: SANGER: Inhibition of human OVCAR-4 cell growth in a cell viability assay.

| Compound | IC50 |
| --- | --- |
| COc1cc2c(Nc3ccc(NC(=O)c4ccccc4)cc3)ncnc2cc1OCCCN1CCOCC1 | > 4 µM |

What follows are molecules tested on NEC8 (assay: cells). Conditions: Homo sapiens, NEC8.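 Note: growth inhibition of human NEC8 cells, read out by a cell viability assay.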
Assay type: functional, cell-based, Homo sapiens
Description: SANGER: Inhibition of human NEC8 cell growth in a cell viability assay.

| Compound | IC50 |
| --- | --- |
| COc1cc2c(Nc3ccc(NC(=O)c4ccccc4)cc3)ncnc2cc1OCCCN1CCOCC1 | > 4 µM |
